Measured values reported in patent US20110178064A1, “SPIRO CONDENSED […] DERIVATIVES FOR USE AS ANTIBACTERIAL” (A[…]&D, priority 2007, published 2011).

The molecules below were run against Escherichia coli DNA gyrase A/B tetramer (Escherichia coli, UniProt P0AES4+P0AES6) (assay: DNA gyrase supercoiling activity fluorescence polarisation assay).
Chain of Escherichia coli DNA gyrase A/B tetramer (P0AES4 whole entry, one chain of several): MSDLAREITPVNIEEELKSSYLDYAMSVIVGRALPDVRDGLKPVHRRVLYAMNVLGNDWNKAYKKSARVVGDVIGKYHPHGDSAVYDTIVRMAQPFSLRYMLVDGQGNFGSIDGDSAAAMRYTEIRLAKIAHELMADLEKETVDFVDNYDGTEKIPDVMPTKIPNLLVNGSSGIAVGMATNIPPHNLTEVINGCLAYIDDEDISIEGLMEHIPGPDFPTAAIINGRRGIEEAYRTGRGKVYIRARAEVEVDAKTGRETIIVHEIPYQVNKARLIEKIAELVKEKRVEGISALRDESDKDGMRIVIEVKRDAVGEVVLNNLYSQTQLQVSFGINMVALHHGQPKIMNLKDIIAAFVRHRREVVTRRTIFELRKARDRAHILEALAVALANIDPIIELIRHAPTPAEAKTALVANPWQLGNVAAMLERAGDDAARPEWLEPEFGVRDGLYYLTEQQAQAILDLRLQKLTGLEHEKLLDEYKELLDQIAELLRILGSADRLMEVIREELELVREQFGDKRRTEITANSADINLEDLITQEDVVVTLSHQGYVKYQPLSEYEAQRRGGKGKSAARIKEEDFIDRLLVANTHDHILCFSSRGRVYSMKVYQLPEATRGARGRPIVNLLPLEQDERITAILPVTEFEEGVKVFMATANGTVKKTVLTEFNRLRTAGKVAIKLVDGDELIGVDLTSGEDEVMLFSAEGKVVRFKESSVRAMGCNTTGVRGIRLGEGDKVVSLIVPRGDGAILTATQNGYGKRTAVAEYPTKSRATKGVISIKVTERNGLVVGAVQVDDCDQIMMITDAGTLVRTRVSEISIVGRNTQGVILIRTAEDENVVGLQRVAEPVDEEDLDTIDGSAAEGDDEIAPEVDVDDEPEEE
Assay type: biochemical
Method: The supercoiling reactions may be quenched by the addition of 10 microliters/well of 40 nM oligodeoxynucleotide probe in 3× triplex-forming buffer consisting of 150 mM NaCl, and 150 mM sodium acetate at pH 3.5. The oligodeoxynucleotide probe may be 5′-BODIPY-FL-labeled […]. After 60 minutes, the fluorescence anisotropy of the BODIPY-FL may be measured in a Tecan Ultra plate reader, using 485 nm excitation and 535 nm emission filters equipped with polarizers. The IC50 may be determined by nonliner regression using two control reactions. The first contains no test compound but 0.8% DMSO (100% activity) while the second control reaction contains 5 uM Ciprofloxacin and 0.8% DMSO (0% activity).
C[C@@H]1CN2c3nc(F)c(C#Cc4cnccn4)cc3CC3(C(=O)NC(=O)NC3=O)[C@H]2[C@H](C)O1 (racemic) [Example 22, (6aS,7S,9R)-rel-2-Fluoro-7,9-dimethyl-3-(pyrazin-2-ylethynyl)-6a,7,9,10-tetrahydro-1′H,5H-spiro[[4]oxazino[4,3-a][1,8]naphthyridine-6,5′-pyrimidine]-2′,4′,6′(3′H)-trione] was tested, and the IC50 was 4 µM. C[C@@H]1CN2c3ncc(-c4nccn4C)cc3CC3(C(=O)NC(=O)NC3=O)[C@H]2[C@H](C)O1 (racemic) [Example 32, (6aS,7S,9R)-rel-7,9-Dimethyl-3-(1-methyl-1H-imidazol-2-yl)-6a., 7,9,10-tetrahydro-2′H,5H-spiro[1,4-oxazino[4,3-a][1,8]naphthyridine-6,5′-pyrimidine]-2′,4′,6′(1′H,3′H)-trione] showed an IC50 of 24 µM. Work on Cc1cscc1-c1cnc2c(c1)CC1(C(=O)NC(=O)NC1=O)[C@H]1[C@H](C)O[C@H](C)CN21 (racemic) [Example 34, (6aS,7S,9R)-rel-7,9-Dimethyl-3-(4-methylthiophen-3-yl)-6a,7,9,10-tetrahydro-2′H,5H-spiro[1,4-oxazino[4,3-a][1,8]naphthyridine-6,5′-pyrimidine]-2′,4′,6′(1′H,3′H-trione] yielded an IC50 of 15 µM. Molecule C[C@@H]1CN2c3cnc(-c4cc5ccccc5o4)cc3CC3(C(=O)NC(=O)NC3=O)[C@H]2[C@H](C)O1 (racemic) [Example 53, (6aS,7S,9R)-rel-3-(1-Benzofuran-2-yl)-7,9-dimethyl-6a,7,9,10-tetrahydro-2′H,5H-spiro[1,4-oxazino[4,3-a][1,7]napthyridine-6,5′-pyrimidine]2′,4′,6′(1′H,3′H)-trione] has an IC50 of 16 µM. For C[C@@H]1CN2c3cnc(-c4ccco4)cc3CC3(C(=O)NC(=O)NC3=O)[C@H]2[C@H](C)O1 (racemic) [Example 54, (6aS,7S,9R)-rel-3-(Furan-2-yl)-7,9-dimethyl-6a,7,9,10-tetrahydro-2′H,5H-spiro[1,4-oxazino[4,3-a][1,7]naphthyridine-6,5′-pyrimidine]-2′,4′,6′(1′H3″H)-trione], the IC50 was greater than 83 µM. COc1ccncc1-c1cc2c(cn1)N1C[C@@H](C)O[C@@H](C)[C@@H]1C1(C2)C(=O)NC(=O)NC1=O (racemic) [Example 58, (6aS,7S,9R)-rel-3-(4-Methoxypyridin-3-yl)-7,9-dimethyl-6a,7,9,10-tetrahydro-2′H,5H-spiro[1,4-oxazino[4,3-a][1,7]naphthyridine-6,5′-pyrimidine]-2′,4′,6′(1″H3″H)-trione] gave an IC50 greater than 83 µM. C[C@@H]1CN2c3cnc(-c4cccnc4)cc3CC3(C(=O)NC(=O)NC3=O)[C@H]2[C@H](C)O1 (racemic) [Example 61, (6aS,7S,9R)-rel-7,9-Dimethyl-3-pyridin-3-yl)-6a,7,9,10-tetrahydro-2′H,5H-spiro[1,4-oxazino[4,3-a][1,7]naphthyridine-6,5′-pyrimidine]-2′,4′,6′(1′H,3′H)-trione] showed an IC50 of 18 µM. C[C@@H]1CN2c3ccc(-c4ccccn4)nc3CC3(C(=O)NC(=O)NC3=O)[C@H]2[C@H](C)O1 (racemic) [Example 69, (2R,4S,4aS)-rel-2,4-Dimethyl-8-(pyridin-2-yl)-1,2,4,4a-tetrahydro-2′H,6H-spiro[1,4-oxazino[4,3-a][1,5]naphthyridine-5,5′-pyrimidine]-2′,4′,6′(1′H3″H)-trione] showed an IC50 of 29 µM. Molecule C[C@@H]1CN2c3cnc(-c4nccs4)cc3CC3(C(=O)NC(=O)NC3=O)[C@H]2[C@H](C)O1 (racemic) [Example 86, (6aS,7S,9R)-rel-7,9-Dimethyl-3-(1,3-thiazol-2-yl)-6a., 7,9,10-tetrahydro-2′H,5H-spiro[1,4-oxazino[4,3-a][1,7]naphthyridine-6,5′-pyrimidine]-2′,4′,6′(1′H,3′H)-trione] has an IC50 of 61 µM. In the case of COc1nc2c(cc1-c1nnc(C)s1)CC1(C(=O)NC(=O)NC1=O)[C@H]1[C@H](C)O[C@H](C)CN21 (racemic) [Example 119, (6aS,7S,9R)-rel-2-Methoxy-7,9-dimethyl-3-(5-methyl-1,3,4-thiadiazol-2-yl)-6a,7,9,10-tetrahydro-1′H,5H-spiro[[1,4]oxazino[4,3-a][1,8]naphthyridine-6,5′-pyrimidine]-2′., 4′,6′(3′H)-trione], the IC50 is reported as 21 µM. In the case of C[C@@H]1CN2c3ncc(-c4nncs4)cc3CC3(C(=O)NC(=O)NC3=O)[C@H]2[C@H](C)O1 (relative stereo) [Example 1, (6aS,7S,9R)-rel-7,9-Dimethyl-3-(1,3,4-thiadiazol-2-yl)-6a,7,9,10-tetrahydro-2′H,5H-spiro[1,4-oxazino[4,3-a][1,8]naphthyridine-6,5′-pyrimidine]-2′,4′,6′(1′H,3′H)-trione], the IC50 is reported as 7 µM. With C[C@@H]1CN2c3cnc(Br)cc3CC3(C(=O)NC(=O)NC3=O)[C@H]2[C@H](C)O1 (relative stereo) [Example 3, (6aS,7S,9R)-rel-3-Bromo-7,9-dimethyl-6a,7,9,10-tetrahydro-1′H,5H-spiro[[1,4]oxazino[4,3-a][1,7]naphthyridine-6,5′-pyrimidine]-2′,4′,6′(3′H)-trione] the IC50 was 11 µM. With C[C@@H]1CN2c3cncc(F)c3CC3(C(=O)NC(=O)NC3=O)[C@H]2[C@H](C)O1 (relative stereo) [Example 6, (6aS,7S,9R)-rel-4-Fluoro-7,9-dimethyl-6a,7,9,10-tetrahydro-1′H,5H-spiro[[1,4]oxazino[4,3-a][1,7]naphthyridine-6,5′-pyrimidine]-2′,4′,6′(3′H)-trione] the IC50 was greater than 83 µM. C[C@@H]1CN2c3ncc(Br)cc3CC3(C(=O)NC(=O)NC3=O)[C@H]2[C@H](C)O1 (relative stereo) [Example 9, (6aS,7S,9R)-rel-3-Bromo-7,9-dimethyl-6a,7,9,10-tetrahydro-1′H,5H-spiro[[1,4]oxazino[4,3-a][1,8]naphthyridine-6,5′-pyrimidine]-2′,4′,6′(3′H)-trione] showed an IC50 of 3 µM. Work on C[C@@H]1CN2c3c(ccnc3Cl)CC3(C(=O)NC(=O)NC3=O)[C@H]2[C@H](C)O1 (relative stereo) [Example 12, (6aS,7S,9R)-rel-1-chloro-7,9-dimethyl-6a,7,9,10-tetrahydro-1′H,5H-spiro[[1,4]oxazino[4,3-a][1,7]naphthyridine-6,5′-pyrimidine]-2′,4′,6′(3′H)-trione] yielded an IC50 of 21 µM. C[C@@H]1CN2c3nc(F)c(I)cc3CC3(C(=O)NC(=O)NC3=O)[C@H]2C(=O)N1 (relative stereo) [Example 14, (6aS,9R)-rel-2-Fluoro-3-iodo-9-methyl-9,10-dihydro-1′H-spiro[pyrazino[1,2-a][1,8]naphthyridine-6,5′-pyrimidine]-2′,4′,6′,7(3′H,5H,6aH,8H)-tetraone] gave an IC50 of 11 µM. Cc1nnc(-c2cc3c(nc2F)N2C[C@@H](C)O[C@@H](C)[C@@H]2C2(C3)C(=O)NC(=O)NC2=O)s1 (relative stereo) [Example 16, (6aS,7S,9R)-rel-2-Fluoro-7,9-dimethyl-3-(5-methyl-1,3,4-thiadiazol-2-yl)-6a,7,9,10-tetrahydro-1′H,5H-spiro[[1,4]oxazino[4,3-a][1,8]naphthyridine-6,5′-pyrimidine]-2′,4′,6′(3′H)-trione] was tested, and the IC50 was 7 µM. With C[C@@H]1CN2c3nc(F)ccc3CC3(C(=O)NC(=O)NC3=O)[C@H]2[C@H](C)O1 (relative stereo) [Example 20, (6aS,7S,9R)-rel-2-Fluoro-7,9-dimethyl-6a,7,9,10-tetrahydro-1′H,5H-spiro[[1,4]oxazino[4,3-a][1,8]naphthyridine-6,5′-pyrimidine]-2′,4′,6′(3′H)-trione] the IC50 was 25 µM. With C[C@@H]1CN2c3nc(F)c(C#Cc4ccccn4)cc3CC3(C(=O)NC(=O)NC3=O)[C@H]2[C@H](C)O1 (relative stereo) [Example 21, (6aS,7S,9R)-rel-2-fluoro-7,9-dimethyl-3-(pyridin-2-ylethynyl)-6a,7,9,10-tetrahydro-1′H,5H-spiro[[1,4]oxazino[4,3-a][1,8]naphthyridine-6,5′-pyrimidine]-2′,4′,6′(3′H)-trione] the IC50 was 10 µM. Molecule COc1ccc(C#Cc2cc3c(nc2F)N2C[C@@H](C)O[C@@H](C)[C@@H]2C2(C3)C(=O)NC(=O)NC2=O)cc1 (relative stereo) [Example 23, (6aS,7S,9R)-rel-2-Fluoro-3-((4-methoxyphenyl)ethynyl)-7,9-dimethyl-6a,7,9,10-tetrahydro-1′H,5H-spiro[[1,4]oxazino[4,3-a][1,8]naphthyridine-6,5′-pyrimidine]-2′,4′,6′(3′H)-trione] has an IC50 of 6 µM. In the case of Cc1nnc(-c2cnc3c(c2)CC2(C(=O)NC(=O)NC2=O)[C@H]2[C@H](C)O[C@H](C)CN32)s1 (relative stereo) [Example 24, (6aS,7S,9R)-rel-7,9-Dimethyl-3-(5-methyl-1,3,4-thiadiazol-2-yl)-6a,7,9,10-tetrahydro-2′H,5H-spiro[1,4-oxazino[4,3-a][1,8]naphthyridine-6,5′-pyrimidine]-2′,4′,6′(1′H,3′H)-trione], the IC50 is reported as greater than 5 µM. C[C@@H]1CN2c3ncc(-c4cncs4)cc3CC3(C(=O)NC(=O)NC3=O)[C@H]2[C@H](C)O1 (relative stereo) [Example 26, (6aS,7S,9R)-rel-7,9-Dimethyl-3-(1,3-thiazol-5-yl)-6a,7,9,10-tetrahydro-2′H,5H-spiro[1,4-oxazino[4,3-a][1,8]naphthyridine-6,5′-pyrimidine]-2′,4′,6′(1′H,3′H)-trione] showed an IC50 of 4 µM. For C[C@@H]1CN2c3ncc(-c4cc5ccccc5s4)cc3CC3(C(=O)NC(=O)NC3=O)[C@H]2[C@H](C)O1 (relative stereo) [Example 28, (6aS,7S,9R)-rel-3-(1-Benzothiophen-2-yl)-7,9-dimethyl-6a,7,9,10-tetrahydro-2′H,5H-spiro[1,4-oxazino[4,3-a][1,8]naphthyridine-6,5′-pyrimidine]-2′,4′,6′(1′H,3′H)-trione], the IC50 was 2 µM.
